Results published in US8940774B2, “Tris-Quaternary Ammonium Salts and Methods for Modulating Neuronal Nicotinic Acetylcholine Receptors” (University of Kentucky Research Foundation, priority 2005, dated 2015).

How the values were obtained:
[1] = target: T1, Rat Striatal Nicotinic Receptors (Rattus norvegicus, UniProt P09483+P12390); assay: Inhibition of [3H]Nicotine (NIC) binding assay, rat striatal membranes; conditions: % inhibition at 100 nM concentration of analog, 3 nM [3H]NIC
T1 construct: from tissue; host or cells: rat striatal membranes
Experimental: Striata from two rats were dissected, pooled, and homogenized with a Tekmar polytron in 10 vol of ice-cold modified Krebs-HEPES buffer (20 mM HEPES, 118 mM NaCl, 4.8 mM, KCl, 2.5 mM CaCl2, 1.2 mM MgSO4, adjusted to pH 7.5). The homogenates were incubated at 37° C. for 5 minutes and centrifuged at 15,000 g for 20 minutes. The pellet was resuspended in 10 volumes of ice-cold MilliQ water, incubated for 5 minutes at 37° C., and centrifuged at 15,000 g for 20 minutes. The second pellet was then resuspended in 10 volumes of fresh ice-cold 10% Krebs-HEPES buffer, incubated at 37° C., and centrifuged at 15,000 g for 20 minutes. The latter sequence of resuspension, incubation and centrifugation was repeated. The pellet was frozen under fresh 10% Krebs-HEPES buffer and stored at −40° C. until assay. Upon assay, the pellet was resuspended in Krebs-HEPES buffer, incubated at 37° C. for 5 minutes, and centrifuged at 15,000 g for 20 minutes. The final pellet was resuspended in 3.6 mL ice-cold MilliQ water which provided for approximately 200 μg protein per 100 μL aliquot. Competition assays were performed in duplicate in a final volume of 200 μL Krebs-HEPES buffer containing […] Tris buffer (pH 7.5 at 4° C.). Reactions were initiated by addition of 100 μL of membrane suspension to 3 nM [^3H]NIC (50 μL) and one of at least nine concentrations of analog (50 μL). After a 90 minute incubation at 4° C., reactions were terminated by dilution of the samples with 3 mL of ice-cold Krebs-HEPES buffer followed immediately by filtration through Whatman GF/B glass fiber filters (presoaked in 0.5% polyethyleneimine) using a Brandel Cell Harvester. Filters were rinsed three times with 3 mL of ice-cold Krebs-HEPES buffer, transferred to scintillation vials, and 5 mL scintillation cocktail (Research Products international Corp., Mt. Prospect, Ill.) added. Nonspecific binding determined in triplicate was defined as binding in the presence of 10 μM NIC. Binding parameters were determined using the weighted, least squares non-linear regression. The tris-quaternary ammonium salts were evaluated for their ability to displace [^3H]NIC binding from rat striatal membranes.
(§1) Data are % inhibition at 100 nM concentration of analog for at least 1-3 independent experiments. Specific binding in the [^3H]NIC binding assay is calculated at the difference between the total binding of [^3H]NIC and nonspecific binding in the presence of 10 μM cold nicotine. Specific binding for the [^3H]MLA binding assay is calculated as the difference between the total binding of 2.5 nM [^3H]MLA to the receptors alone and its nonspecific binding in the presence of 1 μM cold MLA. Analog-induced inhibition of nicotine-evoked [^3H]DA release is calculated as a percent of that in the absence of analog.

[2] = target: T2, α7-type neuronal nicotinic acetylcholine receptors (Rattus norvegicus, UniProt Q05941); assay: Inhibition of [3H]Methyllycaconitine (MLA) binding assay, rat brain membranes; conditions: % inhibition at 100 nM concentration of analog; rat brain membranes; 2.5 nM [3H]MLA; read-out: Inhibition of [3H]MLA binding
T2 construct: from tissue; host or cells: rat brain membranes (whole brain without cortex, striatum and cerebellum)
Experimental: Rat brain was dissected into the whole brain tissue without cortex, striatum and cerebellum and was frozen in liquid nitrogen and stored at −70° C. until use. The brain tissue was homogenized with a Tekmar Polytron (setting 40) in 20 volumes of ice-cold hypotonic buffer (2 mM HEPES, 14.4 mM NaCl, 0.15 mM KCl, 0.2 mM CaCl2 and 0.1 mM MgSO4, pH=7.5). The homogenate was incubated at 37° C. for 10 minutes and centrifuged at 25,000 g for 15 minutes at […] The pellet was washed 3 times more by resuspension in 20 volumes of the same buffer and centrifugation at the above parameters. The final pellet was stored at −20° C. under 4.6 mL of the incubation buffer and was suspended just before the incubation with radioligand.
The binding of [^3H]MLA to probe α7-type neuronal nicotinic acetylcholine receptors was measured using a modification of the method of Davies at al., “Characterisation of the binding of [^3H]methyllycaconitine (MLA): a radioligand for labelling α7-type neuronal nicotinic acetylcholine receptors,” Neuropharmacology, 38, 679-690 (1999). [^3H]MLA (25.4 Ci/mmol) was purchased from Tocris Cookson Ltd., Bristol, U.K. Binding was performed in duplicate, in a final volume of 250 μL of the incubation medium, containing 20 mM HEPES, 144 mM NaCl, 1.5 mM KCl, 2 mM CaCl2, 1 mM MgSO4 and 0.05% BSA, pH=7.5. Reaction was initiated by the addition of 100 μL of membrane suspension to the samples containing a desired concentration of test compounds and […] [^3H]MLA (final concentration) and incubated for 2 hours it room temperature. Total binding was measured in the absence of unlabelled ligand, and nonspecific binding was determined by the presence of 1 μM unlabelled MLA. The binding reaction was terminated by dilution of samples with 3 mL of ice-cold incubation buffer followed by immediate filtration through glass fiber filters (S&S, grade #32, presoaked in 0.5% polyethylenimine) using a Brandel harvester system. Filters were rinsed three times with 3 mL of ice-cold buffer, transferred to scintillation vials and 4 mL of scintillation cocktail was added. Protein was measured using the Bradford dye-binding procedure with bovine serum albumin as the standard.
The tris-quaternary ammonium salts were evaluated for their ability to displace [^3H]MLA binding from rat brain membranes.
as §1

T1 sequence (P09483 31-630): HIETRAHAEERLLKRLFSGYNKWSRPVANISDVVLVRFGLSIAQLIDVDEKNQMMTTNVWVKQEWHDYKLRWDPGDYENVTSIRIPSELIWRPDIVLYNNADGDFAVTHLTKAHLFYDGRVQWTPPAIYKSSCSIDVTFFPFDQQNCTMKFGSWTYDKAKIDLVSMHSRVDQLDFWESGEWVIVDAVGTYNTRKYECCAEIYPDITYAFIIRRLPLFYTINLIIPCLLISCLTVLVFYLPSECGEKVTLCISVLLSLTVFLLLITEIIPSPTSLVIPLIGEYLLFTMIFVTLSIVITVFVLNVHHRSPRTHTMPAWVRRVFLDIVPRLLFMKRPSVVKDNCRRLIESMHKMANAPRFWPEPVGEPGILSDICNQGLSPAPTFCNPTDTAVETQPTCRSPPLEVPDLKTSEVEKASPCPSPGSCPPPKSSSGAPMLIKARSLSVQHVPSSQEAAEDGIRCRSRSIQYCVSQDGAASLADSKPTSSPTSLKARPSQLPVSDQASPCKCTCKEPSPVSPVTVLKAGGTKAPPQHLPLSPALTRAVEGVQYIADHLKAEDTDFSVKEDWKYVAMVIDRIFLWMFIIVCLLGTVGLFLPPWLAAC
T1 sequence (P12390 25-500): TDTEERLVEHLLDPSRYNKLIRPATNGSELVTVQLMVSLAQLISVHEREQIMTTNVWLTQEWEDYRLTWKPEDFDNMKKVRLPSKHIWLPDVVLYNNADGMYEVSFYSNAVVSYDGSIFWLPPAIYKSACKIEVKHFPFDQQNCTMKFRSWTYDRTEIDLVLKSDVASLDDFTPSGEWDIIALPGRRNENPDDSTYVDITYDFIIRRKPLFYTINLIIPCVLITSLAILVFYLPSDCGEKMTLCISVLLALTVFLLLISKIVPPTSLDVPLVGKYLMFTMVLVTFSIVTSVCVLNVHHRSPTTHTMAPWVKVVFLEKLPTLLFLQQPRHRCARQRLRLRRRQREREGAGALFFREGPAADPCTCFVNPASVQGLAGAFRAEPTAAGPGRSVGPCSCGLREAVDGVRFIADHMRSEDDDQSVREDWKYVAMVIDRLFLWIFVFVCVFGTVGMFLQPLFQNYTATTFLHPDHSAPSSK
T2 sequence (Q05941 23-502): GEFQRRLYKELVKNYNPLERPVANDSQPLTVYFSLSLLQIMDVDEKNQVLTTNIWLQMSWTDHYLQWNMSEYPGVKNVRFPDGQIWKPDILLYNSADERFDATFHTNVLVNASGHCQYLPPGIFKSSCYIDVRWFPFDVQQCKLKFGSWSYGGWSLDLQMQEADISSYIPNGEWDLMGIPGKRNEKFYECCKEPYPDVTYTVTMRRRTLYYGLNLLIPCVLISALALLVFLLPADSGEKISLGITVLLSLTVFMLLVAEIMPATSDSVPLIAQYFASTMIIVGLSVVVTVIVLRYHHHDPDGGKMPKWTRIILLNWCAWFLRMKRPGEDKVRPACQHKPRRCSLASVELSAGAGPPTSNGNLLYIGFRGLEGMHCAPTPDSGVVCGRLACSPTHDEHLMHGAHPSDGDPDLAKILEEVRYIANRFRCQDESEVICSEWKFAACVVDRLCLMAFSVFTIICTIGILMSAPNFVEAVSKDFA

CN1CCC[C@H]1c1ccc[n+](CCCC#Cc2cc(C#CCCC[n+]3cccc([C@@H]4CCCN4C)c3)cc(C#CCCC[n+]3cccc([C@@H]4CCCN4C)c3)c2)c1 [GZ551B, 1,3,5-tris-{5-[3-(1-methyl-2-S-pyrrolidinyl)pyridinium]-pent-1-ynyl}-benzene tribromide]
inhibition at 0.1 µM [1]: 44 ± 3.1% | inhibition at 0.1 µM [2]: 4.2 ± 2.2%

CCCCc1ccc[n+](CCCC#Cc2cc(C#CCCC[n+]3cccc(CCCC)c3)cc(C#CCCC[n+]3cccc(CCCC)c3)c2)c1 [GZ551A, 1,3,5-tris-[5-(3-butyl-pyridinium)-pent-1-ynyl]-benzene tribromide]
inhibition at 0.1 µM [1]: 6.8 ± 2% | inhibition at 0.1 µM [2]: 30 ± 2%

CN1CCC[C@H]1c1ccc[n+](CCCCCc2cc(CCCCC[n+]3cccc([C@@H]4CCCN4C)c3)cc(CCCCC[n+]3cccc([C@@H]4CCCN4C)c3)c2)c1 [GZ558C, 1,3,5-tris-{5-[3-(1-methyl-2-S-pyrrolidinyl)pyridinium]-pentyl}-benzene tribromide]
inhibition at 0.1 µM [1]: 81 ± 2.3% | inhibition at 0.1 µM [2]: 7.9 ± 7.1%
